Results as given in PMC11758266, “Lipid-Modulated, Graduated Inhibition of N-Glycosylation Pathway Priming Suggests Wide Tolerance of ER Proteostasis to Stress” (ACS Central Science, 2024).

Assays:
[1] = system: HEK293 cells; assay: HEK-CellCount readout (stained nuclei of live cells, internal cytotoxicity measure); format: cell-based, human
Description: Here, the nuclear localization of the transcription factor ATF4 (which leads to subsequent expression of CHOP and cell death) was used as a phenotypic marker of ER stress (Figure 3A). Use of multi(384)-well plate format allowed wild-type HEK cells to be treated with analogues over a titrating concentration range of 0.5 nM to […] for 6 h in a quantitative manner (Figure 3C). After fixation with paraformaldehyde, high-content cellular fluorescence microscopy imaging was used to both determine the site and quantify the location of ATF4[32] (Figure 3B,C). […] In this way, confocal fluorescence microscopy at excitation wavelengths of 405 and 488 nm produced, as a direct primary readout, the intensity of ATF4 located in the nucleus as well as the ratio of ATF4 located between the nucleus (colocalized with Hoechst) and cytoplasm (see Figure 3B,C for representative images and the Supporting Information for channel-by-channel images). Concurrent readout of the number of stained nuclei (Hoechst nuclei stain) in live cells was also used as an internal cytotoxicity measure. This high-content method allowed detailed quantitative cellular dose responses to be determined with precision (Figure 3D). […]
Figure 3 High-content phenotypic screen for putative ER stress inducers. […] Plates were imaged using an OPERA-Phenix high-content imaging platform with fluorescence excitation at 405 and 488 nm. […]

[2] = biological target: T1, DPAGT1 (Homo sapiens, UniProt Q9H3H5); assay: Heat-induced denaturation assay of DPAGT1 with bound ligand; format: binding
T1 sequence (Q9H3H5 1-408): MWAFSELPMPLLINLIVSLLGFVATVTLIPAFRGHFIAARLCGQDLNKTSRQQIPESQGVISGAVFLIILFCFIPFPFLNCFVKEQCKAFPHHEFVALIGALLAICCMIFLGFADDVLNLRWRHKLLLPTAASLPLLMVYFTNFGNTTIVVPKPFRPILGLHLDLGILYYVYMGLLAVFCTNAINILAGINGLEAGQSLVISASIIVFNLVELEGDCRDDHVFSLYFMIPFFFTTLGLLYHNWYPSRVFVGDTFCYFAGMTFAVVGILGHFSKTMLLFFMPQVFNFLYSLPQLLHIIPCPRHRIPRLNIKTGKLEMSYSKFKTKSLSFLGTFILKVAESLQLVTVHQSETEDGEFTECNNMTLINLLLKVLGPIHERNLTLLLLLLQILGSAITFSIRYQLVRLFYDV
Description: The structure of DPAGT1 in complex with the archetypal scaffold natural product tunicamycin[21] […] Trp122 moves so as to use its indole moiety to hydrophobically provide a binding “cap” or “lid” over the proximal portion of the 10′-N lipid chain.

## tunicamycin [reference compound]
[1]
  cell death (in words): causing cell death
[1]; 6 h, live cell nuclei count, read-out: EC50, cell death
  EC50: ~10 µM
[2]; heat-induced denaturation, DPAGT1 alone 51.7 ± 0.2 °C
  Tm,1/2 of DPAGT1 bound to ligand: 83.0 ± 0.4 °C
[2]; versus DPAGT1 alone
  ΔTm,1/2 of DPAGT1: 31.3 °C
